Measured values from patent publication US8258099B2, “Pin1-modulating compounds and methods of use thereof” (Max-Planck-Gesellschaft zur Foerderung der Wissenschaften …, priority 2004, dated 2012).
One block for each molecule: values may come before it. Square brackets hold non-standard residues; d marks the D form. Peptide text beside a SMILES is read from it. * marks the point of attachment. Biotin = O=C1N[C@H]2[C@H](CS[C@H]2CCCCC(=O)*)N1; Phe(4-tBu) = CC(C)(C)c1ccc(C[C@H](N)C(=O)O)cc1; Bip = N[C@@H](Cc1ccc(-c2ccccc2)cc1)C(=O)O; pT = C[C@@H](OP(=O)(O)O)[C@H](N)C(=O)O; 2Nal = N[C@@H](Cc1ccc2ccccc2c1)C(=O)O; Bta = N[C@@H](Cc1csc2ccccc12)C(=O)O; 2Thi = N[C@@H](Cc1cccs1)C(=O)O; Cha = N[C@@H](CC1CCCCC1)C(=O)O; Tle = CC(C)(C)[C@H](N)C(=O)O; Pip = O=C(O)[C@@H]1CCCCN1; NMeA = CN[C@@H](C)C(=O)O

Experiments:
[1] = molecular target: T1, full length hPin1 (Homo sapiens, UniProt Q13526); assay: Isothermal titration calorimetry (ITC), full length hPin1; format: binding
T1 construct: The protease free assay ensures reliable measurement of IC50 values for the full-length hPin1
Procedure: FIGS. 3A-B depicts a thermodynamic characterization of the binding of peptide 17 towards full length hPin1 by isothermal titration calorimetry (ITC). FIG. 3A depicts peaks that represent the heat evolved after injection of peptide 17 into the sample cell containing hPin1. After the 11th injection only the heat of dilution is observed. The experiment was performed at 10 C. FIG. 3B depicts integrals of the corresponding peaks of panel A are plotted against the molar ratio of peptide 17 and hPin1. The solid line represents a nonlinear least squares fit analysis of the binding heat assuming a single binding site model with the following parameters: ΔHbind=−4561±36 cal/mol, TΔSbind=5433±529 cal/mol, n=0.96 (binding stoichiometry) and KAss=5.18×10^7±7×10^6 M^−1 (association constant).
Calorimetric experiments were performed using a VP-ITC titration calorimeter (MicroCal, Inc, Northampton, Mass.) at 10° C. All solutions were degassed under vacuum prior to use. Solutions of hPin1 and hPin1 PPIase domain were dialyzed against 10 mM Hepes (pH 7.8). The protein concentration in the sample cell was adjusted to 6.5 μM using the same batch of buffer. Protein concentrations were determined as described above. The volume of the protein solution in the sample cell was 1.4 ml. The injection syringe was filled with 300 μl solution of peptide 17 (see table III) (250 μM in the same batch of buffer as used for dialyses). Each titration experiment consisted of a single 1 μl injection followed by 16 identical injections of 5 μl solution of peptide 17.
In principle, minimally four forms of a competing substrate in the presence of hPin1 have to be considered, the free cis and trans isomers together with two Michaelis complexes. This four-site exchange model of PPIase catalysis involves understanding predisposing factors of the stability of hPin1/substrate complexes, expected to be weaker, than the stability for those formed by phosphopeptides lacking substrate properties. The consequent increase in inhibitory potency could be realized by a transition state destabilizing substitution in peptide 15. Previous studies have shown that following C^α-stereocenter inversion of a substrate at the P1 position the parvulins fully retain substrate-like active site affinity for the derivatives while catalytic rate acceleration is abolished (Schiene et al., 1998). […] To optimize solute diffusion after mechanical injection of the Pin1 binding peptides into the viscous Xenopus laevis egg cytosol, the molecular weight of 1376.5 for peptide 16 was reduced to 823.8 for peptide 17. Following chain truncation peptide 17 maintained high affinity for Pin1 (Table III). To ensure domain selectivity, the binding of peptide 17 towards hPin1 was characterized using the isothermal titration calorimetry (ITC). […] The dissociation constant determined with ITC is in the same range as obtained in the protease-free PPIase assay (Table III).

[2] = molecular target: T2, hPin1 (Homo sapiens, UniProt Q13526); assay: Protease free PPIase assay, hPin1; format: biochemical; conditions: for IC50: blockade of PPIase activity of full-length hPin1, protease free assay, 10° C., read-out: IC50
T2 construct: The protease free assay ensures reliable measurement of IC50 values for the full-length hPin1
Procedure: Protein concentrations were determined using the extinction coefficient ε280=21030 M^−1 cm^−1 for hPin1, ε280=6979 M^−1 cm^−1 for the hPin1 PPIase domain, ε280=21030 M^−1 cm^−1 for XlPin1, ε280=8250 M^−1 cm^−1 for hPar14 and ε280=8250 M^−1 cm^−1 for hCyp18. Extinction coefficients were calculated using the program ProtParam Tool at ExPASy (SIB, Switzerland). All measurements were done at 10° C. in 35 mM Hepes buffer (pH 7.8).
The determination of the kinetic constants of the cis/trans isomerization within the protease-free system was performed using fluorescence based measurements (Garcia-Echeverria et al., 1993, Zhang et al., 2002) on a Hitachi F-3010 fluorescence spectrophotometer with H-Abz-Ala-Glu-Pro-Phe-NH-Np (SEQ ID NO: 2) as substrate. The substrate stock solution was 12 mM in anhydrous trifluoroethanol/0.55 M LiCl. Measurements were initiated by addition of the substrate (final concentration 10 μM) to a pre-incubated (15 min) mixture of 8.8 nM hPin1 or 7.1 nM XlPin1 and respective inhibitory peptide of desired concentrations. The excitation wavelength was 320 nm (spectral bandwidth 3 nm) and emission was detected at 420 nm (spectral bandwidth 10 nm).
Data analysis was performed by single-exponential nonlinear regression using the SigmaPlot Scientific Graphing System Version 5.00 (Jandel Corp.). The apparent first order rate constant kobs was computed by nonlinear regression of the progress curve obtained for the respective measurement. The rate constant k0 was determined in the absence of Pin1. The first order rate constants kenz was calculated from the equation kenz=kobs−k0. IC50 and Ki values were determined by fitting the first order rate constants kenz against the concentration of the inhibitory peptide by nonlinear regression according to Schutkowski et al., 1995 or a model for tight binding inhibitors (Morrison, 1969).
The protease free assay ensures reliable measurement of IC50 values for the full-length hPin1.

[3] = molecular target: T3, GST-hPin1, GST-hPin1 PPIase and GST-hPin1 WW domain (Homo sapiens, UniProt Q13526); assay: Far western blot related analysis, hPin1 and its single domains; format: binding; conditions: 1 μM peptide 15, 50 μM nonphosphorylated derivative
T3 construct: made in house
Procedure: FIGS. 2A-B depict western blot experiments analyzing the binding of peptide 15 to Pin1. FIG. 2A depicts the binding preferences of the PPIase and WW domain of hPin1 regarding peptide 15. In far western blot related experiments, increasing amounts (from left to right: 1, 5, 10, 52.5, 105 pmol) of GST, GST-hPin1 or its single GST-hPin1 PPIase and GST-hPin1 WW domain were spotted onto nitrocellulose membranes followed by a blocking procedure. The membranes were then incubated with a 1 μM solution of peptide 15 or 50 μM solution of its nonphosphorylated derivative (control). Signals were detected after incubation of the nitrocellulose membranes with horseradish peroxidase-conjugated streptavidin followed by a chemiluminescent reaction using the SuperSignal® substrate. FIG. 2B depicts an analysis of the binding of peptide 15 towards different GST-hPin1 variants. […] Residual PPIase activities of GST-hPin1 and its variants were determined according to Zhou et al., 2000 and/or Yaffe et al., 1997. The PPIase activity of the GST-hPin1 variant Ser16Glu was measured in the protease free PPIase assay.
GST-hPin1 variants, GST-hPin1 PPIase and GST-hPin1 WW domain were prepared as described previously (Ranganathan et al., 1997, Zhou et al., 2000). […] Specific bound peptide 15 was detected by a chemiluminescent reaction using the SuperSignal® substrate (Pierce).

[4] = molecular target: full-length hPin1 (human, UniProt Q13526 1-163); assay: cell-based or functional assay
full-length hPin1, sequence (Q13526 whole entry): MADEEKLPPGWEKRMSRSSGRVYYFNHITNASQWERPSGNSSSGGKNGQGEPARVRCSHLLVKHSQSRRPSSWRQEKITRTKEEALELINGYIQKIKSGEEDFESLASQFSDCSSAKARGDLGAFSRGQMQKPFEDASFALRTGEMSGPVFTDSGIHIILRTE

T2 sequence (Q13526 whole entry): as above
T1 sequence (Q13526 whole entry): as above
T3 sequence (Q13526 whole entry, the tested form may be a part): as the sequence (Q13526 whole entry) above

Molecule: CC(=O)N[C@@H](Cc1ccccc1)C(=O)N[C@H](C(=O)N1CCCC[C@H]1C(=O)N[C@@H](Cc1ccc2ccccc2c1)C(=O)N[C@@H](CCC(N)=O)C(N)=O)[C@@H](C)OP(=O)(O)O [Ac-Phe-L-Thr(PO3H2)-Pip-Nal-Gln-NH2, reference compound] (Ac-F[pT][Pip][2Nal]Q-NH2)
Kd [1]: 600 nM

Molecule: CC(=O)N[C@@H](CCCCNC(=O)CCCC[C@@H]1SC[C@@H]2NC(=O)N[C@@H]21)C(=O)N[C@@H](C)C(=O)N[C@@H](C)C(=O)N[C@@H](Cc1csc2ccccc12)C(=O)N[C@H](C(=O)N1CCC[C@H]1C(=O)N[C@@H](Cc1ccc2ccccc2c1)C(=O)N[C@@H](CCC(N)=O)C(N)=O)[C@@H](C)OP(=O)(O)O [Peptide 4] (Ac-K(Biotin)AA[Bta][pT]P[2Nal]Q-NH2)
IC50 [2]: 20 µM | fold decrease of inhibition, prolyl residue at Yaa versus peptide 15 ([2]; compared with peptide 15): 100 fold

Molecule: CC(=O)N[C@@H](CCCCNC(=O)CCCC[C@@H]1SC[C@@H]2NC(=O)N[C@@H]21)C(=O)N[C@@H](C)C(=O)N[C@@H](C)C(=O)N[C@@H](Cc1ccc(-c2ccccc2)cc1)C(=O)N[C@H](C(=O)N1CCC[C@H]1C(=O)N[C@@H](Cc1csc2ccccc12)C(=O)N[C@@H](CCC(N)=O)C(N)=O)[C@@H](C)OP(=O)(O)O [Peptide 5] (Ac-K(Biotin)AA[Bip][pT]P[Bta]Q-NH2)
IC50 [2]: 15 µM

Molecule: Ac-Lys(Nε-biotinoyl)-Ala-Ala-Xaa-Thr(PO3H2)-Yaa-Zaa-Gln-NH2 with Xaa Bth, Yaa Pro, Zaa Cha [Peptide 3]
IC50 [2]: > 50 µM

Molecule: nonphosphorylated derivative of peptide 15: peptide 15 lacking the phosphoester group on threonine, used as control (Ac-K(Biotin)AA[Bta]T[Pip][2Nal]Q-NH2; SMILES CC(=O)N[C@@H](CCCCNC(=O)CCCC[C@@H]1SC[C@@H]2NC(=O)N[C@@H]21)C(=O)N[C@@H](C)C(=O)N[C@@H](C)C(=O)N[C@@H](Cc1csc2ccccc12)C(=O)N[C@H](C(=O)N1CCCC[C@H]1C(=O)N[C@@H](Cc1ccc2ccccc2c1)C(=O)N[C@@H](CCC(N)=O)C(N)=O)[C@@H](C)O) [reference compound]
binding to GST-hPin1 and its PPIase and WW domains [3]: not able to form a complex | hPin1 inhibition ([2]; 25 μM, phosphoester group on threonine lacking): does not show any hPin1 inhibition

Further lines, results first:

IC50 [2]: > 50 µM
Molecule: CC(=O)N[C@@H](CCCCNC(=O)CCCC[C@@H]1SC[C@@H]2NC(=O)N[C@@H]21)C(=O)N[C@@H](C)C(=O)N[C@@H](C)C(=O)N[C@@H](Cc1ccc2ccccc2c1)C(=O)N[C@H](C(=O)N1CCC[C@H]1C(=O)N[C@H](C(=O)N[C@@H](CCC(N)=O)C(N)=O)C(C)(C)C)[C@@H](C)OP(=O)(O)O [Peptide 7] (Ac-K(Biotin)AA[2Nal][pT]P[Tle]Q-NH2)

IC50 [2]: > 50 µM
Molecule: CC(=O)N[C@@H](CCCCNC(=O)CCCC[C@@H]1SC[C@@H]2NC(=O)N[C@@H]21)C(=O)N[C@@H](C)C(=O)N[C@@H](C)C(=O)N[C@@H](Cc1ccc2ccccc2c1)C(=O)N[C@H](C(=O)N1CCC[C@H]1C(=O)N[C@@H](CC1CCCCC1)C(=O)N[C@@H](CCC(N)=O)C(N)=O)[C@@H](C)OP(=O)(O)O [Peptide 8] (Ac-K(Biotin)AA[2Nal][pT]P[Cha]Q-NH2)

IC50 [2]: 15 µM
Molecule: CC(=O)N[C@@H](CCCCNC(=O)CCCC[C@@H]1SC[C@@H]2NC(=O)N[C@@H]21)C(=O)N[C@@H](C)C(=O)N[C@@H](C)C(=O)N[C@@H](Cc1cccs1)C(=O)N[C@H](C(=O)N(C)[C@@H](C)C(=O)N[C@@H](Cc1ccc2ccccc2c1)C(=O)N[C@@H](CCC(N)=O)C(N)=O)[C@@H](C)OP(=O)(O)O [Peptide 10] (Ac-K(Biotin)AA[2Thi][pT][NMeA][2Nal]Q-NH2)

IC50 [2]: 20 µM
Molecule: CC(=O)N[C@@H](CCCCNC(=O)CCCC[C@@H]1SC[C@@H]2NC(=O)N[C@@H]21)C(=O)N[C@@H](C)C(=O)N[C@@H](C)C(=O)N[C@@H](Cc1ccccc1)C(=O)N[C@H](C(=O)N(C)[C@@H](C)C(=O)N[C@@H](Cc1csc2ccccc12)C(=O)N[C@@H](CCC(N)=O)C(N)=O)[C@@H](C)OP(=O)(O)O [Peptide 12] (Ac-K(Biotin)AAF[pT][NMeA][Bta]Q-NH2)

IC50(µM), blockade of the PPIase activity of hPin1, protease free PPIase assay [4]: > 50 µM
B1: peptide 8 (peptide)
peptide: Ac-K(Biotin)AA[2Nal][pT]P[Cha]Q-NH2

IC50(µM), blockade of the PPIase activity of hPin1, protease free PPIase assay [4]: 10 µM
B2: peptide 9 (peptide)
peptide: Ac-K(Biotin)AA[Phe(4-tBu)][pT][NMeA][2Nal]Q-NH2
